# Read-outs that look alike come from different tables or passages of the source.
# Assay: Biodistribution in AR42J tumor-bearing nude mice
# Format: in vivo
# Settings: female, CD-1 nude, mouse, iv, 1 nmol/mouse, total radioactivity, i.v. 5 MBq; for tissue uptake at 2 h: 2 h p.i.; for tissue uptake at 24 h: 24 h p.i.
# Text: Five-week-old female CD-1 nude mice were purchased from Charles River Laboratories (Sulzfeld, Germany).
# [1] = AR42J tumor, read-out: AR42J Tumor
# [2] = femoral muscle, read-out: Muscle
# [3] = intestines, read-out: Intestines
structure (smiles),measurement,setting,value
"C[C@@H](O)[C@@H]1NC(=O)[C@H](CCCCN)NC(=O)[C@@H](Cc2c[nH]c3ccccc23)NC(=O)[C@H](Cc2ccc(O)cc2)NC(=O)[C@@H](NC(=O)[C@@H](Cc2ccccc2)NC(=O)CN2CCN(CC(=O)O)CCN(CC(=O)O)CCN(CC(=O)O)CC2)CSSC[C@@H](C(=O)N[C@H](CO)[C@@H](C)O)NC1=O [[^161Tb]Tb-DOTATOC, metal not drawn]",tissue uptake at 2 h,[1],8.2 ± 0.2 %ID/g
same,tissue uptake at 24 h,[1],3.8 ± 0.6 %ID/g
same,tissue uptake at 2 h,"adrenals, read-out: Adrenals",0.25 ± 0.06 %ID/g
same,tissue uptake at 24 h,"adrenals, read-out: Adrenals",0.23 ± 0.2 %ID/g
same,tissue uptake at 2 h,"blood, read-out: Blood",≤ 0.1 %ID/g
same,tissue uptake at 24 h,"blood, read-out: Blood",≤ 0.1 %ID/g
same,tissue uptake at 2 h,[2],≤ 0.1 %ID/g
same,tissue uptake at 24 h,[2],≤ 0.1 %ID/g
same,tissue uptake at 2 h,"femur, read-out: Femur",≤ 0.1 %ID/g
same,tissue uptake at 24 h,"femur, read-out: Femur",≤ 0.1 %ID/g
same,tissue uptake at 2 h,"heart, read-out: Heart",≤ 0.1 %ID/g
same,tissue uptake at 24 h,"heart, read-out: Heart",≤ 0.1 %ID/g
same,tissue uptake at 2 h,[3],0.21 ± 0.13 %ID/g
same,tissue uptake at 24 h,[3],≤ 0.1 %ID/g
same,tissue uptake at 2 h,"kidneys, read-out: Kidneys",9.9 ± 1.4 %ID/g
same,tissue uptake at 24 h,"kidneys, read-out: Kidneys",5.2 ± 0.6 %ID/g
same,tissue uptake at 2 h,"liver, read-out: Liver",0.17 ± 0.01 %ID/g
same,tissue uptake at 24 h,"liver, read-out: Liver",≤ 0.1 %ID/g
same,tissue uptake at 2 h,"lung, read-out: Lung",0.27 ± 0.03 %ID/g
same,tissue uptake at 24 h,"lung, read-out: Lung",0.11 ± 0.01 %ID/g
same,tissue uptake at 2 h,"pancreas, read-out: Pancreas",0.71 ± 0.07 %ID/g
same,tissue uptake at 24 h,"pancreas, read-out: Pancreas",0.18 ± 0.01 %ID/g
same,tissue uptake at 2 h,"spleen, read-out: Spleen",0.11 ± 0.02 %ID/g
same,tissue uptake at 24 h,"spleen, read-out: Spleen",≤ 0.1 %ID/g
same,tissue uptake at 2 h,"stomach, read-out: Stomach",0.74 ± 0.38 %ID/g
same,tissue uptake at 24 h,"stomach, read-out: Stomach",0.29 ± 0.11 %ID/g

# From paper PMC8070648, “Simultaneous Visualization of ^161Tb- and ^177Lu-Labeled Somatostatin Analogues Using Dual-Isotope SPECT Imaging” (Pharmaceutics, 2021)
